{"source": "patent US20180140578A1", "about": "“METHODS AND COMPOSITIONS FOR THE DIAGNOSIS AND SELECTIVE TREATMENT OF CANCER” (Board of Regents of the University of Texas System, priority 2016, published 2018)", "key": {"HCT-116 cells": {"tested_on": "HCT-116 cells", "assay": "Cell viability assay (CellTiter-Glo)", "format": "cell-based, human", "conditions": "for toxicity to HCT-116 cells: at concentrations as high as 50 μM; for IC50: read-out: concentration required to reduce the viability by 50% (IC50), parental HCT-116 cells", "description": "The identity for all human cell lines in this study was confirmed by short tandem repeat (STR) analysis. In addition, all human cell lines were confirmed to be mycoplasma free using a PCR based assay (Genatlantis). HCT-116 cells (ATCC) were grown in DMEM medium with 10% FBS and 2 mM L-glutamine. Lenti-X 293T cells (Clontech) were cultured in DMEM medium with 10% FBS and 2 mM L-glutamine. H1155 cells (a gift from Adi Gazdar and John Minna, UT Southwestern) were cultured in RPMI media with 5% FBS and 2 mM L-glutamine. SF9 cells (a gift from Hongtao Yu, UT Southwestern) were cultured in SF900 II serum free media (Life Technologies).\n(§1) 12-point dose responses were performed on 96-well assay plates with cell plating (1500-4000 cell per well) on day 1, compound addition on day 2, and survival measurement on day 5. Compounds were diluted in DMSO before adding to the cells. Final DMSO concentration was 0.5%. Cell survival assay was performed using CellTiter-Glo Luminescent Cell Viability Assay kit (Promega) that measures cellular ATP content. Luminescence was recorded by EnVison multimode plate reader (Perkin Elmer). IC50 was determined with GraphPad Prism using baseline correction (by normalizing to DMSO control), the asymmetric (five parameter) equation and least squares fit."}, "[1]": {"tested_on": "RBM39 in PSMB5 A108T HCT-116 cells", "assay": "Block of indisulam dependent RBM39 degradation, bortezomib resistant line", "format": "cell-based, human", "conditions": "PSMB5 A108T cell line", "excerpt": "(§2) (B) RBM39-AID is degraded in the presence of TIR1 and IAA in HCT-116 cells. (C) IAA and TIR1 dependent degradation of RBM39-AID results in cell death. Error bars represent standard errors of the mean (SEM) (n=3). […] The effect of bortezomib is attenuated in a bortezomib resistant cell line. […] The effect of MLN4924 is abrogated in an MLN4924 resistant cell line.\n(§3) The methods for generating a population of barcoded HCT-116 cells were described before (20). […] Clones that appeared after the selection was then expanded and barcode genotyped to identify six clones with unique barcodes. […] Source data for exome sequencing data is available under NCBI SRA accession SRP068238. Bortezomib resistant clones were isolated by selection with 5 nM bortezomib, and MLN4924 resistant clones with 40 nM MLN4924.\n(§4) Proteins were resolved on SDS-PAGE and transferred to 0.5 μm nitrocellulose membranes. Membranes were blocked in 5% milk TBST for 30 min, and then anti-RBM39 antibodies (HPA001591, Sigma-Aldrich) were added in 5% milk (1:5000) and incubated on a shaker overnight at 4° C. After three 5 min washes with TBST, membranes were incubated with HRP-conjugated goat anti-rabbit secondary antibody (Bio-Rad) for 2 hr at room temperature. After three 5 min washes with TBST, membranes were developed with ECL (enhanced chemiluminescence) substrates."}, "[2]": {"tested_on": "RBM39 in parental HCT-116 cells", "assay": "Block of indisulam dependent RBM39 degradation, parental cells", "format": "cell-based, human", "excerpt": "as §2, §4"}, "[3]": {"tested_on": "DCAF15-3xFLAG and mutant RBM39Δ150 (M265L, E271Q, P272S)", "assay": "RBM39Δ150 pulldown assay, mutant RBM39", "format": "binding, human", "conditions": "M265L, E271Q, P272S", "description": "RBM39 lacking the first 150 amino acids after the start codon (RBM39Δ150) was cloned into the pFastBac1 (Life Technologies) vector. Site-directed Mutagenesis of RBM39 was performed using Q5 site-directed mutagenesis kit (NEB). DCAF15-GST (C-terminal GST tag) and DDB1 were also cloned into pFastBac1. The production of baculovirus was carried out following vendor's instructions. Protein was expressed in SF9 cells by infection with each protein specific baculovirus, and cells were harvested 48 hr later and frozen in liquid nitrogen. For purification of RBM39Δ150, frozen cells were pulverized by cryomill and resuspended in lysis buffer (40 mM Tris, pH 7.5, 225 mM NaCl, 1× […] Protease inhibitor). The lysate was passed through a 22 gauge needle 2 times followed by ultracentrifugation at 25000 rpm for 30 min. Clarified lysate was incubated with Ni-NTA agarose (Qiagen) for 30 min with rotation at 4° C. Resin and bound protein were washed with wash buffer 1 (40 mM Tris, pH 7.5, 225 mM NaCl) followed by wash buffer 2 (40 mM Tris, pH 7.5, 20 mM imidazole, 225 mM NaCl). Proteins were eluted with elution buffer (40 mM Tris, pH 7.5, 300 mM imidazole, 225 mM NaCl) and concentrated to 0.5 ml. Concentrated proteins were then fractionated on Superdex 200 Increase 10/300 GL (GE Healthcare). […]"}, "[4]": {"biological_target": "T1, DCAF15-3xFLAG and RBM39Δ150 (Homo sapiens, UniProt Q14498+Q66K64)", "T1 construct": "Full-length cDNAs encoding CUL4A, CUL4B, DCAF15, and DDB1 were cloned into pLVX IRES Puro; made in house; host or cells: RBM39Δ150: Sf9 (baculovirus); DCAF15-3xFLAG: anti-FLAG beads from HCT-116 or 293T cells stably expressing it", "T1 sequence (Q66K64 whole entry, stated change not applied)": "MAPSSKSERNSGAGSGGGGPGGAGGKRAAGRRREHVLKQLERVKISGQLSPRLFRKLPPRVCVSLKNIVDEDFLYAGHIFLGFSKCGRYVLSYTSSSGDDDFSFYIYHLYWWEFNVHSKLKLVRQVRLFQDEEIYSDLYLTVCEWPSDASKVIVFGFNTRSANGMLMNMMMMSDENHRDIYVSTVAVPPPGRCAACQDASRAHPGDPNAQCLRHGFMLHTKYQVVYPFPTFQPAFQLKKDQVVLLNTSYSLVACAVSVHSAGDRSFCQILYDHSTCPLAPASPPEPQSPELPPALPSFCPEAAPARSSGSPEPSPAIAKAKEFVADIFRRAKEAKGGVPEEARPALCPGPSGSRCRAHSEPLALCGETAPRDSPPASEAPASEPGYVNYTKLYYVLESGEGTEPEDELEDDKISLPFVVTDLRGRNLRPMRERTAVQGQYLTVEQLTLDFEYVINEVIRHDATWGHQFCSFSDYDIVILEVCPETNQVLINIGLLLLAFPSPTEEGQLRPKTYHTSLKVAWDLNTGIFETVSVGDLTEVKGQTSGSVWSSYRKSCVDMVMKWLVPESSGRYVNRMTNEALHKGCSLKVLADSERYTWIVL", "T1 sequence (Q14498 151-530 limits assumed, stated change not applied)": "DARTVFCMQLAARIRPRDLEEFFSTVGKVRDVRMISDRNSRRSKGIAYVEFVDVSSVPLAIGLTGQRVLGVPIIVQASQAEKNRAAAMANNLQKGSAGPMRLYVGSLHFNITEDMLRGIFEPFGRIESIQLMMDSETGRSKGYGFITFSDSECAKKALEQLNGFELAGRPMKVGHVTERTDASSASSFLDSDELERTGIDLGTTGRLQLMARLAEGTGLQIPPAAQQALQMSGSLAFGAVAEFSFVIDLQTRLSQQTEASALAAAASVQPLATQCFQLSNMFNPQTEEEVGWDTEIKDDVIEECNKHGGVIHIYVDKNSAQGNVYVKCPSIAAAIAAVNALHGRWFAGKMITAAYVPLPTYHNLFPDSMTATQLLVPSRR", "T1 sequence (Q16531 whole entry partner)": "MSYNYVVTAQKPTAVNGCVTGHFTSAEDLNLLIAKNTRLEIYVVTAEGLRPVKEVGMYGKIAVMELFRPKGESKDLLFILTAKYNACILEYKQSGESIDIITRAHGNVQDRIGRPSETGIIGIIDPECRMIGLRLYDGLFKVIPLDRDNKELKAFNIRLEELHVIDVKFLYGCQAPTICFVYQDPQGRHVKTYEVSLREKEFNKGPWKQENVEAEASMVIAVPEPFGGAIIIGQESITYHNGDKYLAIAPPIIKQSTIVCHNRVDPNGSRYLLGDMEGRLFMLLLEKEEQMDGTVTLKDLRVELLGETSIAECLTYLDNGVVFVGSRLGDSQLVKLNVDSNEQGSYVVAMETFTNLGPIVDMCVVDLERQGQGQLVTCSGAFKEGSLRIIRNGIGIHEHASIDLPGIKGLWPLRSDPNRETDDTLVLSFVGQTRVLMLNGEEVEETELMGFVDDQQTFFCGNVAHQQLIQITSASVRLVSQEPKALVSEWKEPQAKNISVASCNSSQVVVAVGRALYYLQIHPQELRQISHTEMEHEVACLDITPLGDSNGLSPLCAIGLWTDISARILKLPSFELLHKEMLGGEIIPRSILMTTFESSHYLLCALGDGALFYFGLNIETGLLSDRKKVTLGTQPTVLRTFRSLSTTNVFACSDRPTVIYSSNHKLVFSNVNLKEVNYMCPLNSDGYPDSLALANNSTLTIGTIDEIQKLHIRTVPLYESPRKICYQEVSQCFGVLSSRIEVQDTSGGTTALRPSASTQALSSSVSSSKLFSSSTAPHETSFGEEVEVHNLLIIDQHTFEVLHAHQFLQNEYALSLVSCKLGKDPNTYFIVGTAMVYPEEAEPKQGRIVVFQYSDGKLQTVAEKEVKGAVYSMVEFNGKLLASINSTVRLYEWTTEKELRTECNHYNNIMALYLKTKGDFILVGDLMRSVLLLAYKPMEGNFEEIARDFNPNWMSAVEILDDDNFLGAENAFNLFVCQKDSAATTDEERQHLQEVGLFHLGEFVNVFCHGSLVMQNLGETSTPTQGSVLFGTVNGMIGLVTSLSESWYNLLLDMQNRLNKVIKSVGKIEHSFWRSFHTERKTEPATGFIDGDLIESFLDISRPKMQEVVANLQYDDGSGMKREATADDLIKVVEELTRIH", "assay": "RBM39Δ150 pulldown assay", "format": "binding", "conditions": "wild type RBM39Δ150", "description": "RBM39 lacking the first 150 amino acids after the start codon (RBM39Δ150) was cloned into the pFastBac1 (Life Technologies) vector. Site-directed Mutagenesis of RBM39 was performed using Q5 site-directed mutagenesis kit (NEB). DCAF15-GST (C-terminal GST tag) and DDB1 were also cloned into pFastBac1. The production of baculovirus was carried out following vendor's instructions. Protein was expressed in SF9 cells by infection with each protein specific baculovirus, and cells were harvested 48 hr later and frozen in liquid nitrogen. For purification of RBM39Δ150, frozen cells were pulverized by cryomill and resuspended in lysis buffer (40 mM Tris, pH 7.5, 225 mM NaCl, 1× […] Protease inhibitor). The lysate was passed through a 22 gauge needle 2 times followed by ultracentrifugation at 25000 rpm for 30 min. Clarified lysate was incubated with Ni-NTA agarose (Qiagen) for 30 min with rotation at 4° C. Resin and bound protein were washed with wash buffer 1 (40 mM Tris, pH 7.5, 225 mM NaCl) followed by wash buffer 2 (40 mM Tris, pH 7.5, 20 mM imidazole, 225 mM NaCl). Proteins were eluted with elution buffer (40 mM Tris, pH 7.5, 300 mM imidazole, 225 mM NaCl) and concentrated to 0.5 ml. Concentrated proteins were then fractionated on Superdex 200 Increase 10/300 GL (GE Healthcare). RBM39Δ150 and mutants eluted at 14.8 ml after injection and were stored at −80° C. in 40 mM Tris, pH 7.5, 225 mM NaCl. For purification of DCAF15-GST/DDB1, Sf9 cells co-infected with DCAF15-GST and DDB1 baculoviruses were lysed in PBS supplemented with 0.1% NP40, 1× […] Protease inhibitors, and 0.5 mM PMSF. The lysate was passed through a 22 gauge needle 2 times followed by centrifugation at 7000 rpm for 15 min. Clarified lysate was incubated with Glutathione Sepharose 4B resin (GE healthcare) for 30 min with rotation at 4° C. Resin was washed with PBS for three times before elution with 50 mM Tris, 10 mM glutathione, pH 8.\nHCT-116 cells stably expressing DDB1-3xFLAG, CUL4A-3xFLAG, CUL4B-3xFLAG, or to DCAF15-3xFLAG were lysed in 1×PBS, 0.1% NP40, and 1× […] protease inhibitor (1 ml per […] plate). […]"}, "[5]": {"tested_on": "HCT-116 RBM39 G268V knock-in cells", "assay": "Cell viability assay, RBM39 G268V knock-in", "format": "cell-based, human", "conditions": "at concentrations as high as 50 μM", "description": "as §1\nsgRNA targeting RBM39 (5′-[…]-3′) was cloned into the pSpCas9(BB)-2A-Puro (PX459) vector (Addgene 62988). For RBM39 G268V knock-in, 1 million HCT-116 or H1155 cells were nucleofected (using 4D-Nucleofector, Lonza) with PX459-RBM39 sgRNA and the single-stranded oligo 5′-[…] […] […] […]-3′ (SEQ ID NO: 13)."}, "RBM39-Nluc": {"biological_target": "T2, RBM39-Nluc (Homo sapiens, UniProt Q14498+Q66K64)", "T2 construct": "Homology directed repair facilitates tagging of endogenous RBM39 by AID, 3xFLAG, AcGFP, or Nanoluciferase; endogenous in cells; host or cells: H1155 RBM39-Nluc knock-in cells", "assay": "RBM39-Nluc degradation by Nano-Glo luciferase assay", "format": "cell-based", "conditions": "H1155 RBM39-Nluc cells; read-out: decrease in RBM39-Nluc activity (IC50)", "description": "NanoLuc was knocked-in to the 3-prime end of the RBM39 gene using the procedure described above yielding H1155 RBM39-Nluc cells. […] Luminescence was recorded by EnVision multimode plate reader (Perkin Elmer). IC50 was determined with GraphPad Prism using baseline correction (by normalizing to DMSO control), the asymmetric (five parameter) equation and least squares fit."}, "RBM39-AID": {"tested_on": "RBM39-AID", "assay": "Auxin induced degradation of RBM39 (western blotting)", "format": "cell-based, human", "conditions": "cells that express both RBM39-AID and TIR1", "description": "(§5) TIR1 cDNA with a V5 tag sequence appended to its 3′ end was cloned into pLVX IRES zsGreenland packaged into lentivirus to infect both parental HCT-116 cells and RBM39-AID-3xFLAG knock-in cells. Following lentiviral delivery of TIR1, cells with top 5% strongest zsGreen expression were sorted by FACS. TIR1-V5 expression was confirmed by western blot with HRP conjugated anti-VS (Sigma-Aldrich, V2260, 1:5000). For examination of RBM39-AID-3xFLAG degradation, cells were treated with 500 μM IAA for 4 hours before being lysed for western blotting. For IAA dose response curves, cells were treated with various concentrations of IAA for 72 hours and ATP levels were quantified using Cell-Titer Glo (Promega)."}, "[6]": {"tested_on": "HCT-116 cells expressing RBM39-AID and TIR1", "assay": "IAA dose response, cell viability (Cell-Titer Glo)", "format": "cell-based, human", "conditions": "cells that express both RBM39-AID and TIR1", "description": "as §5"}, "[7]": {"tested_on": "indisulam resistant HCT-116 clones", "assay": "Cell viability assay, indisulam resistant clones", "format": "cell-based, human", "conditions": "six indisulam resistant clones", "description": "as §3, §1"}, "[8]": {"tested_on": "RBM39 in UBA3 A171T HCT-116 cells", "assay": "Block of indisulam dependent RBM39 degradation, MLN4924 resistant line", "format": "cell-based, human", "conditions": "cells harboring UBA3 A171T mutation", "excerpt": "as §2, §3, §4"}}, "note": "Where two headings read alike, the source gives them in different places.", "data": [{"molecule": "CC1(C)O[C@@H]2[C@@H](CO[C@@]3(COS(N)(=O)=O)OC(C)(C)O[C@@H]23)O1", "note": "[topirimate, topiramate]", "values": [{"measurement": "toxicity to HCT-116 cells", "setting": "HCT-116 cells", "result": "non-toxic"}]}, {"molecule": "CC(=O)Nc1nnc(S(N)(=O)=O)s1", "note": "[acetazolamide]", "values": [{"measurement": "toxicity to HCT-116 cells", "setting": "HCT-116 cells", "result": "non-toxic"}]}, {"molecule": "CC(C)C[C@H](NC(=O)[C@H](Cc1ccccc1)NC(=O)c1cnccn1)B(O)O", "note": "[bortezomib]", "values": [{"measurement": "level of bortezomib required for comparable rescue of RBM39 levels, relative to parental", "setting": "[1]", "result": 10, "unit": "fold"}, {"measurement": "concentration of bortezomib that blocked the degradation of RBM39 in response to indisulam", "setting": "[2]; parental cells, 2 h pretreatment, then 6 h 2 μM indisulam", "result": 10, "unit": "nM"}]}, {"molecule": "O=C(NS(=O)(=O)c1ccc(Br)s1)c1ccc(Cl)cc1Cl", "note": "[tasisulam]", "values": [{"measurement": "IC50", "setting": "HCT-116 cells", "result": 6.5, "unit": "µM"}, {"measurement": "recruitment of indisulam-resistant mutants of RBM39 to DCAF15", "setting": "[3]", "result": "not effectively recruited"}, {"measurement": "recruitment of RBM39Δ150 to DCAF15", "setting": "[4]", "result": "recruit RBM39Δ150 to DCAF15 in a dose-dependent manner"}, {"measurement": "sensitivity of cell line carrying RBM39 G268V", "setting": "[5]", "result": "insensitive"}, {"measurement": "IC50", "setting": "RBM39-Nluc", "result": 5.6, "unit": "µM"}]}, {"molecule": "O=C(O)Cc1c[nH]c2ccccc12", "note": "[IAA, 3-indoleacetic acid]", "values": [{"measurement": "RBM39 levels", "setting": "RBM39-AID", "result": "decrease in RBM39 levels"}, {"measurement": "cell viability", "setting": "[6]", "result": "loss in cell viability"}]}, {"molecule": "Nc1ccc(S(=O)(=O)Nc2cnc3c(Cl)cccc3n2)cc1", "note": "[CQS, chloroquinoxaline sulfonamide]", "values": [{"measurement": "IC50", "setting": "HCT-116 cells; Homo sapiens", "result": 7.1, "unit": "µM"}, {"measurement": "DC50", "setting": "RBM39-Nluc", "result": 2.4, "unit": "µM"}]}, {"molecule": "CC(=O)O[C@H]1C(=O)[C@@]2(C)[C@H]([C@H](OC(=O)c3ccccc3)[C@]3(O)C[C@H](OC(=O)[C@H](O)[C@@H](NC(=O)c4ccccc4)c4ccccc4)C(C)=C1C3(C)C)[C@]1(OC(C)=O)CO[C@@H]1C[C@@H]2O", "note": "[paclitaxel]", "values": [{"measurement": "resistance of indisulam resistant clones to paclitaxel", "setting": "[7]", "result": "None of the clones were resistant"}]}, {"molecule": "NS(=O)(=O)OC[C@@H]1C[C@@H](n2ccc3c(N[C@H]4CCc5ccccc54)ncnc32)C[C@@H]1O", "note": "[MLN4924]", "values": [{"measurement": "effect on degradation of RBM39 in response to indisulam", "setting": "[8]", "result": "did not observe this effect"}, {"measurement": "effect on degradation of RBM39 in response to indisulam", "setting": "[2]; HCT-116 cells", "result": "blocked the degradation of RBM39"}]}]}
